Assay results reported in the supplement of paper PMC10307832.

What was measured:
Test in all cases: relative viability (nuclei count vs DMSO), 5 days (fraction); higher = more cells survive
AZ3146 + Tozasertib = compound: CN1CCC(CC1)OC2=CC(=C(C=C2)NC3=NC=C4C(=N3)N(C(=O)N4C)C5CCCC5)OC [AZ3146] + Cc1cc(Nc2cc(N3CCN(C)CC3)nc(Sc3ccc(NC(=O)C4CC4)cc3)n2)n[nH]1 [Tozasertib] (partner 0.1 µM)
How it was run: (§1)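 Lung cancer cell lines in 1536-well plates were dosed by pin tool the day after seeding, either with one drug alone or with a fixed anchor-drug dose plus five library-drug doses (not always all listed) in √10 steps. After 5 days, cells were fixed and their nuclei stained in one step (final 0.05% Triton X-100, 1% formaldehyde, 1 ug/ml Hoechst), then counted on 4× images. Relative viability is the nuclei count in treated wells divided by that in vehicle wells. Values are medians of duplicate plates.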

AZ3146 + Olaparib = compound: CN1CCC(CC1)OC2=CC(=C(C=C2)NC3=NC=C4C(=N3)N(C(=O)N4C)C5CCCC5)OC [AZ3146] + O=C(c1cc(Cc2n[nH]c(=O)c3ccccc23)ccc1F)N1CCN(C(=O)C2CC2)CC1 [Olaparib] (partner 8 µM)
How it was run: as §1

AZ3146 + Luminespib = compound: CN1CCC(CC1)OC2=CC(=C(C=C2)NC3=NC=C4C(=N3)N(C(=O)N4C)C5CCCC5)OC [AZ3146] + CCNC(=O)c1noc(-c2cc(C(C)C)c(O)cc2O)c1-c1ccc(CN2CCOCC2)cc1 [Luminespib] (partner 0.01 µM)
How it was run: as §1

GSK-J4 + Vorinostat = compound: CCOC(=O)CCNc1cc(N2CCc3ccccc3CC2)nc(-c2ccccn2)n1 [GSK-J4] + O=C(CCCCCCC(=O)Nc1ccccc1)NO [Vorinostat] (partner 1 µM)
How it was run: as §1

Cell Line | relative viability (AZ3146 + Tozasertib; first compound 0.08 µM) | relative viability (AZ3146 + Tozasertib; first compound 0.253 µM) | relative viability (AZ3146 + Tozasertib; first compound 0.8 µM) | relative viability (AZ3146 + Tozasertib; first compound 2.53 µM) | relative viability (AZ3146 + Tozasertib; first compound 8 µM) | relative viability (AZ3146 + Olaparib; first compound 0.08 µM) | relative viability (AZ3146 + Olaparib; first compound 0.253 µM) | relative viability (AZ3146 + Olaparib; first compound 0.8 µM) | relative viability (AZ3146 + Olaparib; first compound 2.53 µM) | relative viability (AZ3146 + Olaparib; first compound 8 µM) | relative viability (AZ3146 + Luminespib; first compound 0.08 µM) | relative viability (AZ3146 + Luminespib; first compound 0.253 µM) | relative viability (AZ3146 + Luminespib; first compound 0.8 µM) | relative viability (AZ3146 + Luminespib; first compound 2.53 µM) | relative viability (AZ3146 + Luminespib; first compound 8 µM) | relative viability (GSK-J4 + Vorinostat; first compound 0.5 µM) | relative viability (GSK-J4 + Vorinostat; first compound 1.581 µM) | relative viability (GSK-J4 + Vorinostat; first compound 5 µM) | relative viability (GSK-J4 + Vorinostat; first compound 15.81 µM) | relative viability (GSK-J4 + Vorinostat; first compound 50 µM)
NCI-H1650 | 0.345 | 0.349 | 0.242 | 0.314 | 0.255 | 0.857 | 0.722 | 0.752 | 0.736 | 0.621 | 0.214 | 0.201 | 0.185 | 0.189 | 0.186 | 0.567 | 0.501 | 0.663 | 0.48 | 0.286
NCI-H2342 | 0.329 | 0.654 | 0.518 | 0.505 | 0.353 | 0.464 | 0.474 | 0.529 | 0.487 | 0.695 | 0.624 | 0.719 | 0.901 | 0.698 | 0.688 | 0.81 | 0.842 | 0.887 | 1.09 | 1.02
NCI-H1975 | 0.684 | 0.732 | 0.275 | 0.208 | 0.227 | 0.748 | 0.774 | 0.813 | 0.793 | 0.418 | 0.215 | 0.173 | 0.162 | 0.204 | 0.257 | 0.662 | 0.689 | 0.637 | 0.632 | 0.71
NCI-H727 | 0.546 | 0.495 | 0.455 | 0.575 | 0.439 | 0.632 | 0.632 | 0.701 | 0.853 | 0.775 | 0.465 | 0.796 | 0.458 | 0.34 | 0.302 | 1.13 | 0.991 | 1.45 | 1.03 | 0.758
COR-L23 | 0.193 | 0.222 | 0.161 | 0.144 | 0.173 | 0.28 | 0.363 | 0.353 | 0.361 | 0.324 | 0.618 | 0.693 | 0.624 | 0.69 | 0.611 | 0.474 | 0.442 | – | 0.413 | 0.361
LK-2 | 0.175 | 0.186 | 0.188 | 0.157 | 0.196 | 0.61 | 0.586 | 0.559 | 0.672 | 0.831 | 0.22 | 0.194 | 0.257 | 0.151 | 0.203 | 0.193 | 0.248 | 0.243 | 0.126 | 0.579
201T | 0.612 | 0.858 | 0.837 | 0.651 | 0.473 | 0.855 | 0.829 | 0.827 | 0.874 | 0.805 | 0.994 | 1.03 | 0.979 | 1.09 | 1.04 | 0.927 | 0.828 | 0.939 | 0.896 | 0.891
HCC-827 | 0.45 | 0.454 | 0.414 | 0.427 | 0.368 | 0.624 | 0.612 | 0.625 | 0.568 | 0.785 | 0.62 | 0.616 | 0.574 | 0.609 | 0.598 | 0.873 | 0.731 | 0.782 | 0.774 | 0.787
NCI-H650 | 0.491 | 0.769 | 0.75 | 0.794 | 0.509 | 0.271 | 0.361 | 0.385 | 0.46 | 0.413 | 0.734 | 0.706 | 0.764 | 0.904 | 0.854 | 0.358 | 0.342 | – | 0.319 | 0.266
HARA | 0.115 | 0.15 | 0.0956 | 0.0781 | 0.0801 | 0.618 | 0.926 | 0.818 | 0.924 | 0.841 | 0.895 | 0.823 | 0.711 | 0.816 | 0.512 | 0.554 | 0.498 | – | 0.311 | 0.246
NCI-H661 | 0.359 | 0.362 | 0.357 | 0.347 | 0.358 | 0.806 | 0.768 | 0.736 | 0.791 | 0.678 | 0.928 | 0.968 | 0.96 | 0.896 | 0.688 | 0.833 | 0.687 | 0.821 | 0.728 | 0.608
NCI-H2087 | 0.215 | 0.31 | 0.236 | 0.17 | 0.175 | 0.563 | 0.654 | 0.649 | 0.637 | 0.419 | 0.232 | 0.182 | 0.217 | 0.209 | 0.199 | 0.638 | 0.68 | 0.544 | 0.842 | 0.811
NCI-H2405 | 0.609 | 0.784 | 0.63 | 0.577 | 0.397 | 0.827 | 0.881 | 0.933 | 0.925 | 0.818 | 0.923 | 0.704 | 0.967 | 0.756 | 0.914 | 0.973 | 0.925 | – | 0.923 | 0.974
NCI-H2170 | 0.593 | 0.838 | 0.644 | 0.561 | 0.266 | 0.578 | 0.63 | 0.542 | 0.614 | 0.623 | 0.703 | 0.827 | 0.755 | 0.576 | 0.616 | 0.813 | 0.677 | 0.803 | 0.638 | 0.761
NCI-H1793 | 0.315 | 0.34 | 0.296 | 0.192 | 0.254 | 0.864 | 0.859 | 0.667 | 0.892 | 0.544 | 0.208 | 0.173 | 0.202 | 0.145 | 0.178 | 0.942 | 0.586 | 0.663 | 0.358 | 0.284
NCI-H647 | 0.236 | 0.358 | 0.143 | 0.191 | 0.157 | 0.412 | 0.474 | 0.592 | 0.603 | 0.237 | 0.186 | 0.178 | 0.244 | 0.149 | 0.269 | 0.59 | 0.719 | 0.553 | 0.646 | 0.43
